Source: article PMC7921063, “The Effects of Genetic Mutations and Drugs on the Activity of the Thiamine Transporter, SLC19A2” (The AAPS Journal, 2021)
Where two headings read alike, the source gives them in different places.

What was measured:
[1] = set-up: method as in Reference column of Table I (PMIDs, package inserts); settings: maximum plasma concentration, human; ref Table I (PMIDs, package inserts); cited from earlier work
[2] = fraction unbound in plasma, human; ref Table I (PMIDs, package inserts); cited from earlier work
[3] = target: T1, SLC19A2 (Homo sapiens, UniProt O60779); test: SLC19A2 inhibitor screen: [3H]-thiamine uptake in SLC19A2-overexpressing HEK293 cells; type: cell-based; set-up: host or cells: HEK293, stably overexpressing SLC19A2 and transiently transfected with a further 500 ng wild-type plasmid; settings: HEK293, 10 min; for remaining activity at 1000 µM: drug 1 mM, [3H]-thiamine 25 nM, 10 min, HEK293 cells expressing SLC19A2, relative to uptake without inhibitor, read-out: Average % SLC19A2 thiamine uptake; for inhibition at 1000 µM: at 1 mM, read-out: reduction in thiamine transport (designated SLC19A2 inhibitor)
T1 sequence (O60779 1-497): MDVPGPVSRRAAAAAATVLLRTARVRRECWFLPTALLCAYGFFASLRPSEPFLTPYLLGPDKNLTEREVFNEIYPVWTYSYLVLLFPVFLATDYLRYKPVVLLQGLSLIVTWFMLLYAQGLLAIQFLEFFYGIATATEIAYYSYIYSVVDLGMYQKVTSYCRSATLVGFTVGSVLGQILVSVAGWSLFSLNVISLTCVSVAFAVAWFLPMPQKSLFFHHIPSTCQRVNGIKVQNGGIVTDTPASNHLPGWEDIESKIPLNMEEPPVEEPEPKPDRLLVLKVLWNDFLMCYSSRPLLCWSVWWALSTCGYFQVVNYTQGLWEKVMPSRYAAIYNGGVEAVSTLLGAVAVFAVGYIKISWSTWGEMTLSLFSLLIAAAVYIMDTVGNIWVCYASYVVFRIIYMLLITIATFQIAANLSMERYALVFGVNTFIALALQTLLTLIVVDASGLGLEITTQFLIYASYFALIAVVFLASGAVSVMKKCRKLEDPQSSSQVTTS
Procedure: (§1) Plasmids encoding wild-type SLC19A2 and three TRMA-associated variants were generated by Genscript Inc. (Piscataway, USA). Methods for generation of stably overexpressing SLC19A2 cell lines and uptake studies have been previously described ([11], [12]). Inhibition and kinetic studies were performed in SLC19A2-overexpressing stable HEK293 cells transiently transfected with an additional 500 ng of SLC19A2 wild-type plasmid.
Prescription drugs associated with MA ([2]) in addition to others belonging to listed drug classes (e.g., proton-pump inhibitors; 63 compounds total) were screened in triplicate at 1 mM to evaluate inhibitory activity against SLC19A2. […] Each plate contained control wells exposed for 10 min (within linear range, Supplemental Figure 1) to [^3H]-thiamine (positive control), [^3H]-thiamine plus 1 mM of amprolium (negative control), and [^3H]-thiamine plus 1 mM of screened drug (3 replicates per drug). Methods have been previously described ([11]). SLC19A2 inhibitors were defined as compounds that decreased SLC19A2-mediated thiamine uptake by 50% or more at 1 mM. For compounds that met this definition, inhibition assays were conducted and IC50 values were calculated by nonlinear fitting using GraphPad Prism 7 (La Jolla, CA) ([11]).
Fig. 3 Common mechanisms of drug-induced megaloblastic anemia and SLC19A2 inhibitor drug screen workflow. A list of drugs associated with inducing megaloblastic anemia through various mechanisms was compiled (a). Each drug was dissolved to a final concentration of 1 mM in buffer containing radiolabeled [^3H] thiamine and exposed to HEK293 cells expressing SLC19A2 wild-type transporter for 10 min.

[4] = target: T1, SLC19A2; test: IC50 assays for inhibition of SLC19A2-mediated thiamine uptake; type: cell-based; set-up: host or cells: HEK293, stably overexpressing SLC19A2 and transiently transfected with a further 500 ng wild-type plasmid; settings: inhibitor 0 to 1 mM, HEK293
Procedure: as §1
Prescription drugs associated with MA ([2]) in addition to others belonging to listed drug classes (e.g., proton-pump inhibitors; 63 compounds total) were screened in triplicate at 1 mM to evaluate inhibitory activity against SLC19A2. The screen was performed using [^3H]-thiamine (25 nM). Each plate contained control wells exposed for 10 min (within linear range, Supplemental Figure 1) to [^3H]-thiamine (positive control), [^3H]-thiamine plus 1 mM of amprolium (negative control), and [^3H]-thiamine plus 1 mM of screened drug (3 replicates per drug). Methods have been previously described ([11]). SLC19A2 inhibitors were defined as compounds that decreased SLC19A2-mediated thiamine uptake by 50% or more at 1 mM. For compounds that met this definition, inhibition assays were conducted and IC50 values were calculated by nonlinear fitting using GraphPad Prism 7 (La Jolla, CA) ([11]).
Fig. 4 Drug screen and potency studies against SLC19A2-mediated thiamine uptake. In the screen, SLC19A2 inhibitors were defined as compounds that inhibit at least 50% of thiamine uptake compared to the positive control. The positive control was thiamine uptake in the absence of inhibitor. Out of the 63 drugs screened, ten reached that threshold. Of the ten drugs, three (fedratinib, amprolium, and trimethoprim) have IC50 values published in literature (a). […] Figures representative of 3 independent experiments except for pantoprazole

[5] = target: T2, wild-type SLC19A2 (Homo sapiens, UniProt O60779); test: Thiamine transport by wild-type SLC19A2 in transiently transfected HEK293 cells with inhibitor; type: cell-based; settings: 200 μM inhibitor
T2 construct: host or cells: HEK293, transiently transfected
T2 sequence (O60779 1-497): T1 sequence (O60779 1-497)
Procedure: as §1
Fig. 2 Function and expression of TRMA-associated SLC19A2 variants, and the effects of two prescription drugs on SLC19A2-mediated thiamine uptake. […] Figures representative of 3 separate experiments (a). Membrane localization of GFP-tagged SLC19A2 variants. To determine TRMA variant membrane expression, constructs encoding SLC19A2 wild-type and TRMA variants were GFP-tagged and transfected in HEK293 cells. Nuclei were stained with Hoechst 33342 dye (blue) and cells were visualized with confocal microscopy (b)

[6] = target: human TPK1 (Homo sapiens, UniProt Q9H3S4); test: TPK1 enzyme assay (AMP-Glo luminescence), substrate test; type: biochemical; settings: 1 mM compound, 15 μg human TPK, 500 μM ATP, 30 min, 37 °C
Chain of human TPK1 (Q9H3S4 whole entry): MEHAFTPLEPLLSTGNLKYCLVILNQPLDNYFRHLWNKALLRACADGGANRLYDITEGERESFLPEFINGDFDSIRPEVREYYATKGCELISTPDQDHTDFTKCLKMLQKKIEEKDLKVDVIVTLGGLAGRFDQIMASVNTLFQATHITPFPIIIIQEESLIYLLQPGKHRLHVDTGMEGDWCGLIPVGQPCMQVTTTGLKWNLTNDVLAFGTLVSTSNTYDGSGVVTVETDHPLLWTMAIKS
Procedure: Methods detailing thiamine pyrophosphokinase 1 (TPK1) enzyme assay development and execution are listed in Supplemental Figure 2 legend.
To determine if the top compounds in the SLC19A2 inhibitor screen (i.e., erythromycin, omeprazole) were substrates of human TPK1, we measured the level of adenosine monophosphate (AMP) generated in a TPK1 enzyme reaction using AMP-Glo™ Assay (Promega).
Luminescence was measured as a proxy for AMP production in human TPK1 reactions exposed to the following compounds: omeprazole 1mM (OME), erythromycin 1mM (ERY), thiamine 1mM (positive control or PC), and no substrate (negative control or NC). Reactions were comprised of 0.5 mL enzyme reaction mixture containing 100 μM MgCl2, 500 μM ATP, pH 7.4, 15 μg of human TPK and 1 mM of tested substrate incubated for 30 min at 37 °C. A negative control reaction was also prepared without added enzyme. Luminescence was measured with a GloMax luminometer (Promega). […] For omeprazole, the signal was not statistically different from the negative control (student’s t-test, p-value = 0.72). Figure representative of 3 independent experiments.

[7] = target: T1, SLC19A2; test: Predicted risk of SLC19A2-mediated clinical drug-drug interaction (FDA criteria); set-up: host or cells: HEK293, stably overexpressing SLC19A2 and transiently transfected with a further 500 ng wild-type plasmid; settings: (fu*Cmax)/IC50 > 0.1
Excerpt: Clinical pharmacokinetic data from human studies ([13]–[18]) and drug monograph databases (e.g., Micromedex, FDA) were used to obtain Cmax (maximum plasma concentration) and fu (fraction of drug unbound in the plasma).

[8] = target: T1, SLC19A2; settings: IC50 published in literature, ref PMID: 27803021; cited from earlier work

| remaining activity at 1000 µM [3] [%] | inhibition at 1000 µM [3] [%] | wild-type SLC19A2 thiamine transport activity [5] | Structure (SMILES) | Cmax [1] [µM] | fu [2] | IC50 [4] [µM] | Luminescent signal (AMP production) in TPK1 reaction versus negative control [6] | FDA criteria for clinically relevant transporter inhibition, unbound Cmax/IC50 [7] | IC50 [8] [µM] |
| --- | --- | --- | --- | --- | --- | --- | --- | --- | --- |
| 29.1 | ≥ 50 | abolished | CCCc1ncc(C[n+]2ccccc2C)c(N)n1 [Amprolium] |  |  |  |  |  |  |
|  |  |  | CCN(CC)CCCC(C)Nc1ccnc2cc(Cl)ccc12 (stereo not drawn) [Chloroquine] | 0.0034 | 0.36-0.39 | 301 |  |  |  |
| 32.8 | ≥ 50 |  | COc1c(C)c2c(c(O)c1C/C=C(\C)CCC(=O)OCCN1CCOCC1)C(=O)OC2 [Mycophenolate mofetil] | < 0.9 | 0.03 (label) | 145 |  |  |  |
| 46.5 | ≥ 50 |  | COc1ccnc(C[S+]([O-])c2nc3ccc(OC(F)F)cc3[nH]2)c1OC (stereo not drawn) [Pantoprazole] | 6.5 | 0.02 (label) | 429 |  |  |  |
| 31.7 | ≥ 50 | abolished | COc1cc(Cc2cnc(N)nc2N)cc(OC)c1OC [Trimethoprim] | 3.44 |  |  |  |  | 6.84 |

| Structure (SMILES) | remaining activity at 1000 µM [3] [%] | inhibition at 1000 µM [3] [%] | wild-type SLC19A2 thiamine transport activity [5] | Cmax [1] [µM] | fu [2] | IC50 [4] [µM] | Luminescent signal (AMP production) in TPK1 reaction versus negative control [6] | FDA criteria for clinically relevant transporter inhibition, unbound Cmax/IC50 [7] | IC50 [8] [µM] |
| --- | --- | --- | --- | --- | --- | --- | --- | --- | --- |
| N=C(N)NC(=O)c1nc(Cl)c(N)nc1N [Amiloride] | 44.8 | ≥ 50 |  | 0.04 | 0.77 | 69 |  |  |  |
| CC[C@H]1OC(=O)[C@H](C)[C@@H](O[C@H]2C[C@@](C)(OC)[C@@H](O)[C@H](C)O2)[C@H](C)[C@@H](O[C@@H]2O[C@H](C)C[C@H](N(C)C)[C@H]2O)[C@](C)(O)C[C@@H](C)C(=O)[C@H](C)[C@@H](O)[C@]1(C)O [Erythromycin] | 29.8 | ≥ 50 |  | 2.3 to 9.6 | 0.1-0.3 | 20 | significantly higher than the negative control signal | met the FDA’s criteria for clinically relevant transporter inhibition |  |
| COc1ccc2[nH]c([S+]([O-])Cc3ncc(C)c(OC)c3C)nc2c1 (stereo not drawn) [Omeprazole] | 26.6 | ≥ 50 |  | 1 to 10 | 0.05 (label) | 207 | statistically similar to the negative control |  |  |
